Source: BigSolDB 2.1

Nc1cnc(Br)cn1
solubility (mole fraction)
Settings	in DMF	in acetone	in ethanol	in ethylene glycol	in isopropanol	in methanol	in n-butanol	in n-propanol	in propylene glycol	in water
278.15 K	0.00849	0.00684	0.00144	0.000694	0.00282	0.000887	0.00541	0.00353	0.00113	1.76e-05
283.15 K	0.00942	0.0076	0.00158	0.000773	0.00308	0.000981	0.00601	0.00392	0.00125	1.93e-05
288.15 K	0.0106	0.00856	0.00174	0.000869	0.0034	0.00108	0.00678	0.00445	0.00139	2.18e-05
293.15 K	0.0119	0.00961	0.00194	0.00097	0.0038	0.00121	0.00757	0.00497	0.00153	2.43e-05
298.15 K	0.0133	0.0108	0.00217	0.00109	0.00429	0.00135	0.00853	0.00563	0.00173	2.73e-05
303.15 K	0.0149	0.012	0.00243	0.00121	0.00477	0.00151	0.00953	0.00625	0.00192	3.08e-05
308.15 K	0.0165	0.0134	0.00272	0.00135	0.00531	0.00167	0.0106	0.00696	0.00216	3.42e-05
313.15 K	0.0185	0.0149	0.00308	0.00149	0.00594	0.00185	0.0118	0.00774	0.00239	3.83e-05
318.15 K	0.0205	0.0165	0.00345	0.00166	0.0066	0.00204	0.0131	0.00858	0.00266	4.27e-05
323.15 K	0.0227	0.0183	0.0039	0.00184	0.00735	0.00225	0.0145	0.0095	0.00294	4.77e-05
